Measurements from EP0042553B1, “Antitumor compositions” (Bristol-Myers Company, priority 1980, dated 1981).
Where a name gives a salt, the structure may show the parent alone.

What was measured:
[1] = Stability / clarity of reconstituted aqueous solution; assay type: physicochemical
Protocol: Stability: 15 mg salt was reconstituted with 10 ml sterile water.
The product salt may be reconstituted with water to give a 5-7.5 mg/ml solution which remains clear at 17°C for at least 6 hours.
(§1) The above mixture can be rapidly (<3 min.) reconstituted with sterile water. The 50 mg/ml solution and 1, 2, 5 and 10 mg/ml dilutions remain clear for at least 24 hours at 15-20°C.
(§2) The above mixture is made according to the general procedure of Example 5.

[2] = Reconstitution time with water; assay type: physicochemical; settings: 5, 7.5 and 10 mg/ml; at 24°C (75°F)
Protocol: Reconstituted aqueous solutions of 5, 7.5 and 10 mg/ml were readily obtained with 3 minutes shaking at 24°C (75°F). Solubility of the salt in water at room temperature is at least 15 mg/ml.
as §1, §2

Solubility in water = assay type: physicochemical
[3] = prior art statement; cited from earlier work
[4] = Compatibility with ions in aqueous solution; assay type: physicochemical; settings: insoluble precipitates form
Protocol: The solid compositions (all three types) provided according to the present invention are reconstituted with sterile water or sterile aqueous vehicle. The preferred unit dosage forms described above may, for example, be reconstituted with one milliliter of sterile water or sterile aqueous vehicle to form relatively concentrated m-AMSA solutions or such solutions may be diluted to form more dilute (e.g. 5 mg/ml m-AMSA activity) solutions. […] Reconstitution, therefore, should be effected with vehicles substantially free of the above-mentioned ions.
Caution: Solutions of m-AMSA are incompatible with chloride, sulfate, phosphate and carbonate ions. Precipitates form.

animal tumor systems = settings: Cain, et al., Europ. J. Cancer 10:539-549 (1974); cited from earlier work

## COc1cc(NS(C)(=O)=O)ccc1Nc1c2ccccc2nc2ccccc12 [Preparation 4, Crystalline L(+)-Monolactate hemiacetonate of m-AMSA]
[1]; 15 mg salt in 10 ml sterile water, after 2 weeks storage at 45°C
  activity loss: < 6%
[1]; 15 mg salt reconstituted with 10 ml sterile water
  Stability: time the solution was stable: at least 24 hours

## COc1cc(NS(C)(=O)=O)ccc1Nc1c2ccccc2nc2ccccc12 [Preparation 6, Crystalline DL-Monolactate acetone solvate of m-AMSA]
[1]; 5-7.5 mg/ml solution in water at 17°C
  time solution remains clear: at least 6 hours
[2]
  shaking time to obtain reconstituted aqueous solutions: 3 min
Solubility in water; at room temperature
  solubility: ≥ 15 mg/mL

## COc1cc(NS(C)(=O)=O)ccc1Nc1c2ccccc2nc2ccccc12 [Preparation 9, Crystalline m-AMSA monogluconate salt]
Solubility in water; at 50-60°C
  solubility: 30 mg/mL

## COc1cc(NS(C)(=O)=O)ccc1Nc1c2ccccc2nc2ccccc12 [m-AMSA, 4'-(9-acridinylamino)-methanesulfon-m-anisidide]
[3]
  solubility in water (in words): very limited
[4]
  compatibility in aqueous solution with chloride, sulfate, phosphate and carbonate ions: incompatible
Animal tumor systems
  antitumor activity: significant antitumor activity

## COc1cc(NS(C)(=O)=O)ccc1Nc1c2ccccc2nc2ccccc12.Cl [monohydrochloride]
[3]
  solubility in water (in words): insufficiently water-soluble

## COc1cc(NS(C)(=O)=O)ccc1Nc1c2ccccc2nc2ccccc12.CS(=O)(=O)O [monomethanesulfonate]
[3]
  solubility in water (in words): insufficiently water-soluble
